The NIST ThermoML archive (doi:10.1016/j.jct.2010.07.006)
Where “and” joins values, the source holds several entries; their conditions need not be identical. Equal entries are not always repeated. ± gives the expanded uncertainty stated by the source.

Settings: Crystal, Calculated from knudsen effusion weight loss

Cc1cc(C(=O)O)c(C)o1 [2,5-dimethyl-3-furancarboxylic acid]
Settings | vapor or sublimation pressure
309.19 K | 0.0001409 ± 7.1e-06 kPa and 0.000132 ± 7e-06 kPa and 0.0001359 ± 6.8e-06 kPa
311.12 K | 0.0001806 ± 9.1e-06 kPa and 0.0001768 ± 8.9e-06 kPa and 0.0001708 ± 8.6e-06 kPa
313.08 K | 0.0002273 ± 1.1e-05 kPa and 0.0002279 ± 1.1e-05 kPa and 0.0002259 ± 1.1e-05 kPa
315.18 K | 0.0002809 ± 1.4e-05 kPa and 0.0002804 ± 1.4e-05 kPa and 0.0002914 ± 1.5e-05 kPa
317.12 K | 0.0003673 ± 1.8e-05 kPa and 0.0003617 ± 1.8e-05 kPa and 0.0003524 ± 1.8e-05 kPa
319.08 K | 0.0004503 ± 2.3e-05 kPa and 0.0004556 ± 2.3e-05 kPa and 0.000449 ± 2.2e-05 kPa
321.18 K | 0.0005801 ± 2.9e-05 kPa and 0.0005612 ± 2.8e-05 kPa and 0.000567 ± 2.8e-05 kPa
323.09 K | 0.0007336 ± 3.7e-05 kPa and 0.0007218 ± 3.6e-05 kPa and 0.0007101 ± 3.6e-05 kPa
325.07 K | 0.0009185 ± 4.6e-05 kPa and 0.000908 ± 4.6e-05 kPa and 0.0008953 ± 4.5e-05 kPa
325.19 K | 0.0009292 ± 4.6e-05 kPa and 0.000927 ± 4.6e-05 kPa and 0.0008864 ± 4.5e-05 kPa
327.1 K | 0.001147 ± 0.00012 kPa and 0.001128 ± 0.00012 kPa and 0.001102 ± 0.00011 kPa
